Measurements published in PubChem BioAssay (NCI).
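1) Cells in 96-well plates. 2) Compound, 48 h, 5 concentrations. 3) Linear interpolation between surrounding doses. 4) Unreached endpoint = highest concentration. Here, GI50 denotes the concentration required for 50% inhibition of growth. TGI marks complete inhibition of growth.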

Key:
Test in all cases: NCI-60 cell line screen, 48 h
HOP-62 NSCLC = system: HOP-62 NSCLC
MDA-MB-468 breast = system: MDA-MB-468 breast
OVCAR-3 ovarian = system: OVCAR-3 ovarian
SNB-75 CNS = system: SNB-75 CNS
RPMI-8226 leukemia = system: RPMI-8226 leukemia
UO-31 renal = system: UO-31 renal
HT29 colon = system: HT29 colon
SK-MEL-5 melanoma = system: SK-MEL-5 melanoma
LOX IMVI melanoma = system: LOX IMVI melanoma
MALME-3M melanoma = system: MALME-3M melanoma
NCI-H226 lung = system: NCI-H226 lung
A498 renal = system: A498 renal
UACC-257 melanoma = system: UACC-257 melanoma
SNB-19 CNS = system: SNB-19 CNS
M14 melanoma = system: M14 melanoma
SF-268 CNS = system: SF-268 CNS
A549 NSCLC = system: A549 NSCLC
EKVX NSCLC = system: EKVX NSCLC
RXF 393 renal = system: RXF 393 renal
NCI-H522 lung = system: NCI-H522 lung
HS 578T breast = system: HS 578T breast
MDA-MB-231 breast = system: MDA-MB-231 breast
NCI-H460 lung = system: NCI-H460 lung
NCI-H23 lung = system: NCI-H23 lung
MOLT-4 leukemia = system: MOLT-4 leukemia
SK-MEL-2 melanoma = system: SK-MEL-2 melanoma
HL-60(TB) leukemia = system: HL-60(TB) leukemia
OVCAR-5 ovarian = system: OVCAR-5 ovarian
CCRF-CEM leukemia = system: CCRF-CEM leukemia
SK-MEL-28 melanoma = system: SK-MEL-28 melanoma
DU-145 prostate = system: DU-145 prostate
SR leukemia = system: SR leukemia
SF-295 CNS = system: SF-295 CNS
U251 CNS = system: U251 CNS
IGROV1 ovarian = system: IGROV1 ovarian
SN12C renal = system: SN12C renal
SW-620 colon = system: SW-620 colon
NCI/ADR-RES ovarian = system: NCI/ADR-RES ovarian
TK-10 renal = system: TK-10 renal
HOP-92 NSCLC = system: HOP-92 NSCLC
PC-3 prostate = system: PC-3 prostate
HCC-2998 colon = system: HCC-2998 colon
T-47D breast = system: T-47D breast
UACC-62 melanoma = system: UACC-62 melanoma
COLO 205 colon = system: COLO 205 colon
KM12 colon = system: KM12 colon
OVCAR-4 ovarian = system: OVCAR-4 ovarian
OVCAR-8 ovarian = system: OVCAR-8 ovarian
K-562 leukemia = system: K-562 leukemia
SF-539 CNS = system: SF-539 CNS
ACHN renal = system: ACHN renal
HCT-15 colon = system: HCT-15 colon
786-0 renal = system: 786-0 renal
BT-549 breast = system: BT-549 breast
SK-OV-3 ovarian = system: SK-OV-3 ovarian
MCF7 breast = system: MCF7 breast
MDA-MB-435 = system: MDA-MB-435
HCT-116 colon = system: HCT-116 colon
CAKI-1 renal = system: CAKI-1 renal

**Q.** What does the source list for `COc1ccc(N=Nc2c(N)nn3c(-c4cc5cc(Br)ccc5oc4=O)ccnc23)cc1`?
**A.** GI50 (HOP-62 NSCLC): 2.09 µM; TGI (HOP-62 NSCLC): 5.21 µM; GI50 (MDA-MB-468 breast): 1.86 µM; TGI (MDA-MB-468 breast): 6.2 µM; GI50 (OVCAR-3 ovarian): 3.85 µM; TGI (OVCAR-3 ovarian): > 100 µM; GI50 (SNB-75 CNS): 1.73 µM; TGI (SNB-75 CNS): 5.34 µM; GI50 (RPMI-8226 leukemia): 10.9 µM; TGI (RPMI-8226 leukemia): > 100 µM; GI50 (UO-31 renal): 3.33 µM; TGI (UO-31 renal): 15.4 µM; GI50 (HT29 colon): 3.51 µM; TGI (HT29 colon): > 100 µM; GI50 (SK-MEL-5 melanoma): 3.56 µM; TGI (SK-MEL-5 melanoma): 13.6 µM; GI50 (LOX IMVI melanoma): 4.72 µM; TGI (LOX IMVI melanoma): 16.4 µM; GI50 (MALME-3M melanoma): 3 µM; TGI (MALME-3M melanoma): 11.6 µM; GI50 (NCI-H226 lung): 3.72 µM; TGI (NCI-H226 lung): 14.5 µM; GI50 (A498 renal): 2.64 µM; TGI (A498 renal): 9.09 µM; GI50 (UACC-257 melanoma): 7.3 µM; TGI (UACC-257 melanoma): 32 µM; GI50 (SNB-19 CNS): 4.05 µM; TGI (SNB-19 CNS): 16.3 µM; GI50 (M14 melanoma): 12.5 µM; TGI (M14 melanoma): > 100 µM; GI50 (SF-268 CNS): 3.72 µM; TGI (SF-268 CNS): 20 µM; GI50 (A549 NSCLC): 3.7 µM; TGI (A549 NSCLC): 16.9 µM; GI50 (EKVX NSCLC): 9.79 µM; TGI (EKVX NSCLC): 35.5 µM; GI50 (RXF 393 renal): 2.34 µM; TGI (RXF 393 renal): 7 µM; GI50 (NCI-H522 lung): 2.07 µM; TGI (NCI-H522 lung): 6.43 µM; GI50 (HS 578T breast): 3.08 µM; TGI (HS 578T breast): > 100 µM; GI50 (MDA-MB-231 breast): 2.9 µM; TGI (MDA-MB-231 breast): 10.1 µM; GI50 (NCI-H460 lung): 2.96 µM; TGI (NCI-H460 lung): 11.1 µM; GI50 (NCI-H23 lung): 2.98 µM; TGI (NCI-H23 lung): 10.1 µM; GI50 (MOLT-4 leukemia): > 100 µM; TGI (MOLT-4 leukemia): > 100 µM; GI50 (SK-MEL-2 melanoma): 4.01 µM; TGI (SK-MEL-2 melanoma): 18.2 µM; GI50 (HL-60(TB) leukemia): > 100 µM; TGI (HL-60(TB) leukemia): > 100 µM; GI50 (OVCAR-5 ovarian): 4.86 µM; TGI (OVCAR-5 ovarian): 33.8 µM; GI50 (CCRF-CEM leukemia): > 100 µM; TGI (CCRF-CEM leukemia): > 100 µM; GI50 (SK-MEL-28 melanoma): 4.78 µM; TGI (SK-MEL-28 melanoma): 19 µM; GI50 (DU-145 prostate): 5.43 µM; TGI (DU-145 prostate): > 100 µM; GI50 (SR leukemia): 99.7 µM; TGI (SR leukemia): > 100 µM; GI50 (SF-295 CNS): 2.7 µM; TGI (SF-295 CNS): 8.53 µM; GI50 (U251 CNS): 1.89 µM; TGI (U251 CNS): 4.24 µM; GI50 (IGROV1 ovarian): 6.28 µM; TGI (IGROV1 ovarian): 22.8 µM; GI50 (SN12C renal): 3.21 µM; TGI (SN12C renal): 14.1 µM; GI50 (SW-620 colon): 5.86 µM; TGI (SW-620 colon): 59.6 µM; GI50 (NCI/ADR-RES ovarian): 3.42 µM; TGI (NCI/ADR-RES ovarian): 13.1 µM; GI50 (TK-10 renal): 7.89 µM; TGI (TK-10 renal): 24.8 µM; GI50 (HOP-92 NSCLC): 2.48 µM; TGI (HOP-92 NSCLC): 7.25 µM; GI50 (PC-3 prostate): 4.56 µM; TGI (PC-3 prostate): 71.5 µM; GI50 (HCC-2998 colon): 4.63 µM; TGI (HCC-2998 colon): 23.6 µM; GI50 (T-47D breast): 3.12 µM; TGI (T-47D breast): 13.5 µM; GI50 (UACC-62 melanoma): 2.98 µM; TGI (UACC-62 melanoma): 12.1 µM; GI50 (COLO 205 colon): 6.15 µM; TGI (COLO 205 colon): 52.3 µM; GI50 (KM12 colon): 4.17 µM; TGI (KM12 colon): > 100 µM; GI50 (OVCAR-4 ovarian): 3.69 µM; TGI (OVCAR-4 ovarian): 19.3 µM; GI50 (OVCAR-8 ovarian): 2.93 µM; TGI (OVCAR-8 ovarian): 11.1 µM; GI50 (K-562 leukemia): 11.1 µM; TGI (K-562 leukemia): > 100 µM; GI50 (SF-539 CNS): 2.54 µM; TGI (SF-539 CNS): 6.26 µM; GI50 (ACHN renal): 2.52 µM; TGI (ACHN renal): 7.17 µM; GI50 (HCT-15 colon): 4.63 µM; TGI (HCT-15 colon): 79.8 µM; GI50 (786-0 renal): 2.36 µM; TGI (786-0 renal): 5.9 µM; GI50 (BT-549 breast): 4.38 µM; TGI (BT-549 breast): 14.8 µM; GI50 (SK-OV-3 ovarian): 3.67 µM; TGI (SK-OV-3 ovarian): 10.7 µM; GI50 (MCF7 breast): 3.5 µM; TGI (MCF7 breast): 16.4 µM; GI50 (MDA-MB-435): 7.87 µM; TGI (MDA-MB-435): > 100 µM; GI50 (HCT-116 colon): 3.69 µM; TGI (HCT-116 colon): 12.4 µM; GI50 (CAKI-1 renal): 3.47 µM; TGI (CAKI-1 renal): 15.5 µM
